PMC7069944, “Amino acid levels determine metabolism and CYP450 function of hepatocytes and hepatoma cell lines” (Nature Communications, 2020)
Where “and” joins values, the source holds several entries; their conditions need not be identical. Equal values may be shown once.

Legend:
HC6X = test: Repeated-exposure DILI training compounds, resazurin conversion, HC6X; conditions: repeat exposure
Experimental: (§1) To evaluate the ability to predict hepatotoxicity, we adapted the differentiation assays to a 384-well format. […] As a readout, we evaluated cell viability by resazurin conversion and correlated the results to therapeutic doses (Cmax values).
(§2) PSCs were differentiated in a 384-well format. […] As a negative control, 41 wells were left untreated. HepG2 were seeded at 40,000 cells per well. […] Cells were fixed with 4% PFA. […] Drugs were administrated after 8 h of attachment.

HC3X = test: Repeated-exposure DILI training compounds, resazurin conversion, HC3X
Experimental: as §1, §2

HepG2 = test: Repeated-exposure DILI training compounds, resazurin conversion, HepG2; conditions: repeat exposure
Experimental: as §1, §2

HLC = test: Repeated-exposure DILI training compounds, resazurin conversion, HLC; conditions: repeat exposure
Experimental: as §1, §2

`COc1ccccc1Oc1c(NS(=O)(=O)c2ccc(C(C)(C)C)cc2)nc(-c2ncccn2)nc1OCCO` [bosentan] was tested, and the “% resazurin conversion” value (HC6X; HC6X AAGLY D40, 3 uM) was 121.3% and 137.4% and 77.6% and 97.3% and 111.3% and 90.5%, the “% resazurin conversion” value (HC6X; HC6X AAGLY D40, 5 uM) was 110% and 103.2% and 89.1% and 89.6% and 114.4% and 93.7% and the “% resazurin conversion” value (HC6X; HC6X AAGLY D40, 10 uM) was 131.4% and 134.4% and 92.1% and 126.5% and 93.7% and 145.1%. For the same compound, the “% resazurin conversion” value (HC6X; HC6X AAGLY D40, 50 uM) was 121.5% and 126.6% and 76.5% and 101.9% and 125.3% and 68.1%, the “% resazurin conversion” value (HC6X; HC6X AAGLY D40, 300 uM) was 51.6% and 48.9% and 38.5% and 48% and 36.4% and 37.5% and the “% resazurin conversion” value (HC6X; HC6X AAGLY D40, 600 uM) was 42.8% and 51.2% and 38.6% and 45.8% and 36.3% and 36.8%. For the same compound, the “% resazurin conversion” value (HC6X; HC6X AAGLY D40, 1200 uM) was 43.6% and 36.9% and 34.8% and 34.9% and 34.2% and 34.3%, the “% resazurin conversion” value (HC6X; HC6X AAGLY D40 Remove dox, 5 uM) was 141.3% and 131.9% and 106.3% and 141.8% and 135.5% and 84.1% and the “% resazurin conversion” value (HC6X; HC6X AAGLY D40 Remove dox, 10 uM) was 112.1% and 102.7% and 152.9% and 116.3% and 149.9% and 95.7%. The IC50/Cmax (HC3X; human) was 20.81, the “% resazurin conversion” value (HC3X; repeat exposure, HC3X AAGLY D40, 600 uM) was 1159% and 1257% and 1241% and 1301% and 1247% and 1406% and the “% resazurin conversion” value (HepG2; HepG2 AAGLY D30, 3 uM) was 83.9% and 87.5% and 86.6% and 85% and 90.8% and 89.1%. For the same compound, the “% resazurin conversion” value (HepG2; HepG2 AAGLY D30, 5 uM) was 103.5% and 109.8% and 105.4% and 106.1% and 101% and 103.7%, the “% resazurin conversion” value (HepG2; HepG2 AAGLY D30, 10 uM) was 90.8% and 98.2% and 96.3% and 97.7% and 97.3% and 97.5% and the “% resazurin conversion” value (HepG2; HepG2 AAGLY D30, 30 uM) was 90.6% and 101.6% and 98.2% and 101.9% and 99.2% and 99.7%. For the same compound, the “% resazurin conversion” value (HepG2; HepG2 AAGLY D30, 50 uM) was 84.4% and 90.1% and 80.4% and 87% and 86.9% and 92.2%, the “% resazurin conversion” value (HepG2; HepG2 AAGLY D30, 600 uM) was 8% and 8.7% and 8.4% and 8.6% and 8.3% and 9% and the “% resazurin conversion” value (HepG2; HepG2 AAGLY D30, 1200 uM) was 7.9% and 8.6% and 8% and 8.4% and 8.7%. The “% resazurin conversion” value (HepG2; HepG2 CTL D7, 3 uM) was 72.9% and 95.8% and 79% and 88.4% and 77.2% and 78.8%, the “% resazurin conversion” value (HepG2; HepG2 CTL D7, 5 uM) was 73% and 91.1% and 80.4% and 81.6% and 71% and 76.1% and the “% resazurin conversion” value (HepG2; HepG2 CTL D7, 10 uM) was 80.2% and 87.8% and 81.3% and 100.4% and 83.9% and 90.2%. For the same compound, the “% resazurin conversion” value (HepG2; HepG2 CTL D7, 30 uM) was 88.1% and 98.7% and 86.3% and 105.4% and 85.7% and 92.4%, the “% resazurin conversion” value (HepG2; HepG2 CTL D7, 50 uM) was 100.8% and 104.7% and 98% and 123.6% and 67.3% and 101.1% and the “% resazurin conversion” value (HepG2; HepG2 CTL D7, 100 uM) was 111.8% and 105.3% and 106.2% and 109.9% and 117.5%. For the same compound, the “% resazurin conversion” value (HepG2; HepG2 CTL D7, 300 uM) was 107% and 119.1% and 111.5% and 146.3% and 120.1% and 110.8%, the “% resazurin conversion” value (HepG2; HepG2 CTL D7, 600 uM) was 50.2% and 44.9% and 48.2% and 53.5% and 46.5% and 47.5% and the “% resazurin conversion” value (HepG2; HepG2 CTL D7, 1200 uM) was 40.4% and 38.1% and 40.3% and 39.7% and 40.2% and 39%. The “% resazurin conversion” value (HLC; HLC AAGLY D40, 3 uM) was 109.3% and 112.7% and 130.6% and 92% and 117.8% and 119.8%, the “% resazurin conversion” value (HLC; HLC AAGLY D40, 10 uM) was 148.2% and 164.2% and 142.5% and 106% and 129.2% and 90.2% and the “% resazurin conversion” value (HLC; HLC AAGLY D40, 30 uM) was 132.6% and 125.2% and 98.6% and 133% and 124.8%. For the same compound, the “% resazurin conversion” value (HLC; HLC AAGLY D40, 300 uM) was 153.6% and 174.4% and 181% and 131.1% and 171.9% and 113.3%, the “% resazurin conversion” value (HLC; HLC LDM D40, 3 uM) was 65.2% and 80.9% and 104.5% and 116.7% and 90.6% and 90.5% and the “% resazurin conversion” value (HLC; HLC LDM D40, 5 uM) was 79.3% and 100.8% and 63.5% and 57.3% and 83.2% and 66.4%. For the same compound, the “% resazurin conversion” value (HLC; HLC LDM D40, 10 uM) was 54.2% and 93.9% and 81.1% and 77.7% and 59.3% and 81.3%, the “% resazurin conversion” value (HLC; HLC LDM D40, 50 uM) was 60.7% and 70.7% and 67.1% and 86.7% and 80.2% and 104.9% and the “% resazurin conversion” value (HLC; HLC LDM D40, 100 uM) was 75% and 93.6% and 100.7% and 102.7% and 92.9% and 94.1%.
